The values that follow come from patent US8884023B2, “Pyrano [3,2-D][1,3]thiazole as glycosidase inhibitors” (priority 2011, dated 2014).

In test [1] the target is T1, O-GlcNAcase (UniProt Q8VIJ5).
T1 sequence (Q8VIJ5 1-916): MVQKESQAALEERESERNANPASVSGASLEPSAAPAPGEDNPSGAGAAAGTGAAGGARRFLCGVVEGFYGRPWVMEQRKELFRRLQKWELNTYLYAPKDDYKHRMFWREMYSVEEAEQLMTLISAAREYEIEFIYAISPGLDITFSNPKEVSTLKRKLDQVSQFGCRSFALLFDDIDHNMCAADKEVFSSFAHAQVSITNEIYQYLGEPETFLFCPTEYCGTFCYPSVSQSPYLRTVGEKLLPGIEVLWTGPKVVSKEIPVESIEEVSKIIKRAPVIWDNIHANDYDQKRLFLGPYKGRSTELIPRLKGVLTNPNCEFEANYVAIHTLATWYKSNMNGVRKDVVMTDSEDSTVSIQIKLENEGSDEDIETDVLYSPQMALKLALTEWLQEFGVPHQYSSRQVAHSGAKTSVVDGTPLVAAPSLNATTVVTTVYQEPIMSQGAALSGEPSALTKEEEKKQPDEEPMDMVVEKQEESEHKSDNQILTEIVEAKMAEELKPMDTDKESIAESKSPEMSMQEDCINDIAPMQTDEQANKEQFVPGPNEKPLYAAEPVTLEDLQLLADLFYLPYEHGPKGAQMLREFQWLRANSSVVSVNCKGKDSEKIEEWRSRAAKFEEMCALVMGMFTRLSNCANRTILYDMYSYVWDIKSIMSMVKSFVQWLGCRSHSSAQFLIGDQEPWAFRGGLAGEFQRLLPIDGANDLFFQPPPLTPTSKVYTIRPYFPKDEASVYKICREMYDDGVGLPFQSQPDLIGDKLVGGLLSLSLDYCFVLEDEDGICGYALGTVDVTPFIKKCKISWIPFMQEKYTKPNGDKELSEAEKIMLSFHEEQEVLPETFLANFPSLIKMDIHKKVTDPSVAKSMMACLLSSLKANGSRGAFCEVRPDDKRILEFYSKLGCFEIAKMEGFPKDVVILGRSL
The class given is cell-based. The source says: Assay for the Determination of Cellular Activity for Compounds that Inhibit O-GlcNAcase Activity
Inhibition of O-GlcNAcase, which removes O-GlcNAc from cellular proteins, results in an increase in the level of O-GlcNAcylated proteins in cells. An increase in the O-GlcNAcylation of cellular proteins can be measured by an antibody, such as CTD110.6, that binds O-GlcNAcylated proteins. The amount of O-GlcNAcylated protein can be determined by the enzyme linked immunoabsorbant assay (ELISA) technique.
Cell lines, such as rat B35, rat PC-12 and human SH-SY5Y cells, expressing endogenous levels of O-GlcNAcase, could be utilized. Cells were plated in 96-well plates at a density of approximately 10,000 cells/well. Compounds to be tested were dissolved in DMSO as 10 mM stock solution, and then diluted first with DMSO and then culture media using the Bravo workstation. Cells were treated with diluted compounds for approximately 16 hours. […] To prepare a cell lysate, the media from compound treated cells were removed, and the cells were washed once with Dulbecco's phosphate buffered saline (DPBS) and then lysed for 30 minutes in 100 μl/well of ice cold RIPA buffer containing a protease inhibitor cocktail.
The ELISA portion of the assay was performed in EIA/RIA plates that were coated overnight at 4 C with 80 μl/well of cell lysate. The following day the wells were washed 6 times with 200 μl of wash buffer (0.05% Tween20 in DPBS). The wells were blocked with 200 μl blocking buffer (1% BSA, 0.05% Tween20 in DPBS) for 1 h at room temperature. Each well was then washed 6 times with 200 μl of wash buffer. The anti-O-GlcNAc antibody CTD110.6 (Covance, Princeton, N.J.) was added at 100 μl/well at a concentration of 10 μg/ml. The plates were incubated for 1 h at room temperature. The wells were then washed 6 times with 200 μl/well of wash buffer. To detect the amount of CTD110.6 bound to the cell lysate, alkaline phosphatase conjugated goat anti-mouse IgM (diluted 1:500 in blocking buffer) was added at 100 μl/well and incubated for 45 min at room temperature. Each well was then washed 6 times with 200 μl/well of wash buffer. PNPP tablets dissolved in diethanolamine substrate buffer and 100 μl/well were added as detection reagent.
The amount of O-GlcNAcylated protein, as detected by the ELISA assay, was plotted for each concentration of test compound using standard curve fitting algorithms for sigmoidal dose response curves. The values for a four parameter logistic curve fit of the data were determined, with the inflection point of the curve being the potency value for the test compound.

The target in test [2] is T2, His-Tagged hOGA (human O-GlcNAcase) (Homo sapiens, UniProt O60502).
T2 sequence (O60502 1-916): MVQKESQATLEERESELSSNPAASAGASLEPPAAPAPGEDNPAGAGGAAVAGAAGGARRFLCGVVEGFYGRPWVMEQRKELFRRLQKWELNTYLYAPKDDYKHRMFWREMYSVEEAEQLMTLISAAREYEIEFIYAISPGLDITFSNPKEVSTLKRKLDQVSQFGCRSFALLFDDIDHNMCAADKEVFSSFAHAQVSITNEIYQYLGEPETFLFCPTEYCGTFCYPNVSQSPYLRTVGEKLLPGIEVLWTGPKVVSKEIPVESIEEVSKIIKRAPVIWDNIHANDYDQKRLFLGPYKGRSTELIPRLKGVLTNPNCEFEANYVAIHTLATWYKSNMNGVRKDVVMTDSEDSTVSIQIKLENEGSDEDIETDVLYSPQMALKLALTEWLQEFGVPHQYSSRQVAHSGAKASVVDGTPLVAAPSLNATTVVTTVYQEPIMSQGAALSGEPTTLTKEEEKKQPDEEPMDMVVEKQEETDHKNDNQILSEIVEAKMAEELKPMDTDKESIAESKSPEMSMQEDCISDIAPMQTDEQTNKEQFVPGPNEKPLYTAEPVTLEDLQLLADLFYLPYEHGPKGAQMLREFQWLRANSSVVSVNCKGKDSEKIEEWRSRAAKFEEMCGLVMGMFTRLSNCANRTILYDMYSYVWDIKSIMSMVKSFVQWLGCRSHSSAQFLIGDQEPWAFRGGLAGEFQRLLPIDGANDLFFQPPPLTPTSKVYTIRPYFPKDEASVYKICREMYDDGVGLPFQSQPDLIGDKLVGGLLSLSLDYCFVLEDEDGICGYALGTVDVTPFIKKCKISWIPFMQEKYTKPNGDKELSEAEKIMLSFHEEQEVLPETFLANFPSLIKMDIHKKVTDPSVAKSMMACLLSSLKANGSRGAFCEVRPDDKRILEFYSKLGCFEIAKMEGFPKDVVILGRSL
The experiment in a line: biochemical. The procedure:
Human O-GlcNAcase Enzyme Inhibition Assay
The following reaction components were added to a final volume of 10 μL in McIlvaine's Buffer (pH 6.5):
20 nM His-Tagged hOGA and 10 μM Fluoroscein mono-beta-D-(2-deoxy-2-N-acetyl) glucopyranoside (FL-GlcNAc; Marker Gene Technologies Inc, Part #M1485). […] The amount of fluorescence measured was plotted against the concentration of inhibitor to produce a sigmoidal dose response curve, from which an IC50 was calculated.

Setting [3] is: cells expressing endogenous O-GlcNAcase (such as rat B35, rat PC-12, human SH-SY5Y), approximately 16 hours treatment; read-out: OGA cellular inhibition (EC50).
Where [4] appears, read: read-out: OGA enzyme inhibition (IC50).

Molecules are shown by their SMILES. Read-outs that look alike come from different tables or passages of the source.

For the compound `CCNC1=N[C@@H]2[C@@H](O)[C@H](O)[C@@H](C(O)CCc3ccccc3)O[C@@H]2S1` (single isomer, unassigned) [compound no. 53], the EC50 in test [1] (setting [3]) lay within 100 to 500 nM. In addition, in test [2] (setting [4]), the IC50 was in the range of 100 to 500 nM. On to `CCNC1=N[C@@H]2[C@@H](O)[C@H](O)[C@@H](COC(c3ccccc3)(c3ccccc3)c3ccccc3)O[C@@H]2S1` [compound 43], for which, in test [1] (setting [3]), the EC50 is above 1000 nM. The same compound displayed a half-maximal inhibitory concentration (IC50) in test [2] of 500 to 1000 nM. As to `CCNC1=N[C@@H]2[C@@H](O)[C@H](O)[C@@H](Cn3cc(Cn4cccc4)nn3)O[C@@H]2S1` [compound 66], the EC50 in test [1] (setting [3]) was above 1000 nM. In test [2] (setting [4]), the concentration for half-maximal inhibition (IC50) was below 100 nM. `CCNC1=N[C@@H]2[C@@H](O)[C@H](O)[C@@H](Cn3cc(C(O)c4ccccc4)nn3)O[C@@H]2S1` (stereo partly shown) [compound 68]: the EC50 in test [1] (setting [3]) is above 1000 nM. Besides, in test [2], the concentration for half-maximal inhibition (IC50) is below 100 nM.

In the case of `CCNC1=N[C@@H]2[C@@H](O)[C@H](O)[C@@H](Cn3cc(Cn4c5ccccc5c5ccccc54)nn3)O[C@@H]2S1` [compound 69], the EC50 in test [1] (setting [3]) is 100 to 500 nM. Further, in test [2] (setting [4]), the IC50 is 100 to 500 nM. Consider `CCNC1=N[C@@H]2[C@@H](O)[C@H](O)[C@@H](Cn3cc(C(O)(c4ccccc4)C(F)(F)F)nn3)O[C@@H]2S1` (stereo partly shown) [compound 70], for which the 50% effective concentration (EC50) in test [1] (setting [3]) is above 1000 nM. This compound also came in with an IC50 in test [2] below 100 nM.

`CCNC1=N[C@@H]2[C@@H](O)[C@H](O)[C@@H](Cn3cc(CN(C)c4ccccc4)nn3)O[C@@H]2S1` [compound 71]: in test [1] (setting [3]), the concentration for a half-maximal effect (EC50) was above 1000 nM. This compound came in with an IC50 in test [2] of 100 to 500 nM. In the case of `CCNC1=N[C@@H]2[C@@H](O)[C@H](O)[C@@H](Cn3cc(COc4cccc(Br)c4)nn3)O[C@@H]2S1` [compound 72], in test [1] (setting [3]), the concentration giving a half-maximal response (EC50) was 100 to 500 nM. Also, in test [2] (setting [4]), the IC50 was below 100 nM.

`CCNC1=N[C@@H]2[C@@H](O)[C@H](O)[C@@H](Cn3cc(COc4cccc(C#N)c4)nn3)O[C@@H]2S1` [compound 73]: the EC50 in test [1] (setting [3]) was 500 to 1000 nM. In test [2], this compound came in with an IC50 below 100 nM. For the compound `CCNC1=N[C@@H]2[C@@H](O)[C@H](O)[C@@H](Cn3cc(COc4cccc(O)c4)nn3)O[C@@H]2S1` [compound 74], the 50% effective concentration (EC50) in test [1] (setting [3]) was above 1000 nM. Also, the IC50 in test [2] (setting [4]) is below 100 nM.

Take `CCNC1=N[C@@H]2[C@@H](O)[C@H](O)[C@@H](Cn3cc(COc4cccc(CO)c4)nn3)O[C@@H]2S1` [compound 75]: the EC50 in test [1] (setting [3]) was above 1000 nM. The same compound came in with a half-inhibitory concentration (IC50) in test [2] below 100 nM.

`CCNC1=N[C@@H]2[C@@H](O)[C@H](O)[C@@H](Cn3cc(COc4cccc(C(C)O)c4)nn3)O[C@@H]2S1` (stereo partly shown) [compound 76]: the EC50 in test [1] (setting [3]) is above 1000 nM. Further, in test [2], the IC50 is below 100 nM. Turning to `CCNC1=N[C@@H]2[C@@H](O)[C@H](O)[C@@H](CN=[N+]=[N-])O[C@@H]2S1` [compound no. 1, (3aR,5R,6S,7R,7aR)-5-(azidomethyl)-2-(ethylamino)-5,6,7,7a-tetrahydro-3aH-pyrano[3,2-d][1,3]thiazole-6,7-diol], the EC50 in test [1] (read-out: OGA cellular inhibition (EC50); cells expressing endogenous O-GlcNAcase (such as rat B35, rat PC-12, human SH-SY5Y), approximately 16 hours treatment) is 100 to 500 nM. The compound `CCNC1=N[C@@H]2[C@@H](O)[C@H](O)[C@@H]([C@@H](O)CCCc3ccccc3)O[C@@H]2S1` [compound no. 56, (3aR,5R,6S,7R,7aR)-2-(ethylamino)-5-((S)1-hydroxy-4-phenylbutyl)-5,6,7,7a-tetrahydro-3aH-pyrano[3,2-d][1,3]thiazole-6,7-diol] yielded an IC50 in test [2] of 100 to 500 nM. For `CCNC1=N[C@@H]2[C@@H](O)[C@H](O)[C@@H](C(=O)CCc3ccccc3)O[C@@H]2S1` [compound no. 59, 1-[(3aR,5S,6S,7R,7aR)-2-(ethylamino)-6,7-dihydroxy-5,6,7,7a-tetrahydro-3aH-pyrano[3,2-d][1,3]thiazol-5-yl]-3-phenylpropan-1-one], the 50% inhibitory concentration (IC50) in test [2] (setting [4]) is above 1000 nM. In test [2], `CCNC1=N[C@@H]2[C@@H](O)[C@H](O)[C@@H](C(=O)CCCc3ccccc3)O[C@@H]2S1` [compound no. 60, 1-[(3aR,5S,6S,7R,7aR)-2-(ethylamino)-6,7-dihydroxy-5,6,7,7a-tetrahydro-3aH-pyrano[3,2-d][1,3]thiazol-5-yl]-4-phenylbutan-1-one] showed a 50% inhibitory concentration (IC50) above 1000 nM.

`CCNC1=N[C@@H]2[C@@H](O)[C@H](O)[C@@H](CN)O[C@@H]2S1` [compound no. 61, (3aR,5R,6S,7R,7aR)-5-(aminomethyl)-2-(ethylamino)-5,6,7,7a-tetrahydro-3aH-pyrano[3,2-d][1,3]thiazole-6,7-diol] displayed an IC50 in test [2] of 100 to 500 nM. As for `CCN(C(=O)OCc1ccccc1)C1=N[C@@H]2[C@@H](O)[C@H](O)[C@@H](CO)O[C@@H]2S1` [compound no. 62, benzyl [(3aR,5R,6S,7R,7aR)-6,7-dihydroxy-5-(hydroxymethyl)-5,6,7,7a-tetrahydro-3aH-pyrano[3,2-d][1,3]thiazol-2-yl]ethylcarbamate], the half-inhibitory concentration (IC50) in test [2] (20 nM His-Tagged hOGA, 10 μM FL-GlcNAc, pH 6.5, 60 min room temperature, read-out: OGA enzyme inhibition (IC50)) was 100 to 500 nM. Consider `CCN(C(=O)Oc1ccccc1)C1=N[C@@H]2[C@@H](O)[C@H](O)[C@@H](CO)O[C@@H]2S1` [compound no. 63, Phenyl-[(3aR,5R,6S,7R,7aR)-6,7-dihydroxy-5-(hydroxymethyl)-5,6,7,7a-tetrahydro-3aH-pyrano[3,2-d][1,3]thiazol-2-yl]ethylcarbamate], for which, in test [2], the IC50 lay in the range of 100 to 500 nM.
